Measurements published in patent publication US20220332701A1, “HETEROCYCLIC COMPOUNDS AS BCR-ABL INHIBITORS” (ASCENTAGE PHARMA (SUZHOU) CO., LTD., priority 2019, published 2022).

What was measured:
BaF3(WT) = BaF3(WT) (Homo sapiens, UniProt P00519); assay: WST (CCK-8) anti-proliferation assay, BaF3 WT cells; details: read-out: BaF3(WT); anti-proliferative IC50, 72 h treatment, CCK-8, BaF3 WT
BaF3(T315I) = BaF3(T315I) (Homo sapiens, UniProt P00519, T315I, cells depend on it); assay: WST (CCK-8) anti-proliferation assay, BaF3 T315I cells; details: read-out: BaF3(T315I); anti-proliferative IC50, 72 h treatment, CCK-8, BaF3 T315I

| SMILES | GI50 (BaF3(WT)) [nM] | GI50 (BaF3(T315I)) [nM] |
| --- | --- | --- |
| CNC(=O)C1Cc2cc(C(=O)Nc3ccc(OC(F)(F)Cl)cc3)cc(-c3cncnc3)c2N1C(C)C (centres unmarked) [VII-16, N5-(4-(chlorodifluoromethoxy)phenyl)-1-isopropyl-N2-methyl-7-(pyrimidin-5-yl)indoline-2,5-dicarboxamide] | 28 | 278 |
| CC1(C)c2c(cc(C(=O)Nc3ccc(OC(F)(F)Cl)cc3)cc2-c2ccn[nH]2)C(=O)N1CCN1CC[C@@H](O)C1 [IV-8, (R)—N-(4-(chlorodifluoromethoxy)phenyl)-2-(2-(3-hydroxypyrrolidin-1-yl)ethyl)-1,1-dimethyl-3-oxo-7-(1H-pyrazol-5-yl)isoindoline-5-carboxamide] | 100 | 6020 |
| CN1C(=O)c2cc(C(=O)Nc3ccc(OC(F)(F)Cl)cc3)cc(-c3ccncc3)c2C1(C)C [IV-4, N-(4-(chlorodifluoromethoxy)phenyl)-1,1,2-trimethyl-3-oxo-7-(pyridin-4-yl)isoindoline-5-carboxamide] | 129 | 581 |
| CN1CCC2(C1)C(=O)Nc1cc(C(=O)Nc3ccc(OC(F)(F)Cl)cc3)cc(-c3cc[nH]n3)c12 (centres unmarked) [V-8, N-(4-(chlorodifluoromethoxy)phenyl)-1′-methyl-2-oxo-4-(1H-pyrazol-3-yl)spiro[indoline-3,3′-pyrrolidine]-6-carboxamide] | 1550 | – |
| CC(C)N1c2c(cc(C(=O)Nc3ccc(OC(F)(F)Cl)cc3)cc2-c2cncnc2)CC1C(=O)N1CCOCC1 (centres unmarked) [VII-23, N-(4-(chlorodifluoromethoxy)phenyl)-1-isopropyl-2-(morpholine-4-carbonyl)-7-(pyrimidin-5-yl)indoline-5-carboxamide] | 17 | 146 |
| CS(=O)(=O)N1CCc2cc(C(=O)Nc3ccc(OC(F)(F)Cl)cc3)cc(-c3ccn[nH]3)c21 [VII-9, N-(4-(chlorodifluoromethoxy)phenyl)-1-(methylsulfonyl)-7-(1H-pyrazol-5-yl) indoline-5-carboxamide] | 403 | 4960 |
| O=C(Nc1ccc(OC(F)(F)Cl)cc1)c1cc2c(c(-c3ccn[nH]3)c1)N(C1CC(CCl)C1)CC2 (centres unmarked) [VII-11, N-(4-(chlorodifluoromethoxy)phenyl)-1-(3-(chloromethyl)cyclobutyl)-7-(1H-pyrazol-3-yl)indoline-5-carboxamide] | 29 | 946 |
| CC1(C)c2c(cc(C(=O)Nc3ccc(OC(F)(F)Cl)cc3)cc2-c2ccn[nH]2)C(=O)N1CCO [IV-5, N-(4-(chlorodifluoromethoxy)phenyl)-2-(2-hydroxyethyl)-1,1-dimethyl-3-oxo-7-(1H-pyrazol-5-yl)isoindoline-5-carboxamide] | 121 | 1060 |
| CC(C)N1c2c(cc(C(=O)Nc3ccc(OC(F)(F)Cl)cc3)cc2-c2cncnc2)CC1C(=O)N1CC(O)C1 (centres unmarked) [VII-14, N-(4-(chlorodifluoromethoxy)phenyl)-2-(3-hydroxyazetidine-1-carbonyl)-1-isopropyl-7-(pyrimidin-5-yl)indoline-5-carboxamide] | 56 | 660 |
| CC(C)N1C(=O)C(C)(C)c2cc(C(=O)Nc3ccc(OC(F)(F)Cl)cc3)cc(-c3cncnc3)c21 [VIII-2, N-(4-(chlorodifluoromethoxy)phenyl)-1-isopropyl-3,3-dimethyl-2-oxo-7-(pyrimidin-5-yl)indoline-5-carboxamide] | 359 | 1990 |
| O=C(Nc1ccc(OC(F)(F)Cl)cc1)c1cc2c(c(-c3ccn[nH]3)c1)N(C1CC1)CC2 [VII-5, N-(4-(chlorodifluoromethoxy)phenyl)-1-cyclopropyl-7-(1H-pyrazol-5-yl) indoline-5-carboxamide] | 34 | 295 |
| CN1CCc2cc(C(=O)Nc3ccc(SC(F)(F)F)cc3)cc(-c3ccn[nH]3)c21 [VII-44, 1-methyl-7-(1H-pyrazol-5-yl)-N-(4-((trifluoromethyl)thio)phenyl)indoline-5-carboxamide] | 66 | 666 |
| CC1(C)c2c(cc(C(=O)Nc3ccc(OC(F)(F)Cl)cc3)cc2-c2ccn[nH]2)C(=O)N1CCN1CCS(=O)(=O)CC1 [IV-7, N-(4-(chlorodifluoromethoxy)phenyl)-2-(2-(1,1-dioxidothiomorpholino)ethyl)-1,1-dimethyl-3-oxo-7-(1H-pyrazol-5-yl)isoindoline-5-carboxamide] | 364 | 1750 |

Now from value to molecule:

| GI50 (BaF3(WT)) [nM] | GI50 (BaF3(T315I)) [nM] | SMILES |
| --- | --- | --- |
| 94 | 790 | CC1(C)CNc2cc(C(=O)Nc3ccc(OC(F)(F)Cl)cc3)cc(-c3ccn[nH]3)c21 [III-3, N-(4-(chlorodifluoromethoxy)phenyl)-3,3-dimethyl-4-(1H-pyrazol-5-yl)indoline-6-carboxamide] |
| 45 | 648 | CC(C)N1c2c(cc(C(=O)Nc3ccc(OC(F)(F)Cl)cc3)cc2-c2ccn[nH]2)CC1CO (centres unmarked) [VII-34, N-(4-(chlorodifluoromethoxy)phenyl)-2-(hydroxymethyl)-1-isopropyl-7-(1H-pyrazol-5-yl)indoline-5-carboxamide] |
| 46 | 168 | CC(C)N1CC(C)(CO)c2cc(C(=O)Nc3ccc(OC(F)(F)Cl)cc3)cc(-c3ccn[nH]3)c21 (centres unmarked) [VII-41, N-(4-(chlorodifluoromethoxy)phenyl)-3-(hydroxymethyl)-1-isopropyl-3-methyl-7-(1H-pyrazol-5-yl)indoline-5-carboxamide] |
| 24 | 244 | CN1C(=O)c2cc(C(=O)Nc3ccc(OC(F)(F)Cl)cc3)cc(-c3ccn[nH]3)c2C1(C)C [IV-1, N-(4-(chlorodifluoromethoxy)phenyl)-1,1,2-trimethyl-3-oxo-7-(1H-pyrazol-5-yl)isoindoline-5-carboxamide] |
| 16 | 332 | CC(C)N1CC(CO)c2cc(C(=O)Nc3ccc(OC(F)(F)Cl)cc3)cc(-c3ccn[nH]3)c21 (centres unmarked) [VII-43, N-(4-(chlorodifluoromethoxy)phenyl)-3-(hydroxymethyl)-1-isopropyl-7-(1H-pyrazol-5-yl)indoline-5-carboxamide] |
| 62 | 1050 | CC1CN(C)c2c(-c3ccn[nH]3)cc(C(=O)Nc3ccc(OC(F)(F)Cl)cc3)cc21 (centres unmarked) [VII-39, N-(4-(chlorodifluoromethoxy)phenyl)-1,3-dimethyl-7-(1H-pyrazol-5-yl)indoline-5-carboxamide] |
| 67 | 1290 | CC(C)N1CCCCc2cc(C(=O)Nc3ccc(OC(F)(F)Cl)cc3)cc(-c3ccn[nH]3)c21 [X-1, N-(4-(chlorodifluoromethoxy)phenyl)-1-isopropyl-9-(1H-pyrazol-5-yl)-2,3,4,5-tetrahydro-1H-benzo[b]azepine-7-carboxamide] |
| 1690 | 3860 | CCC1c2cc(C(=O)Nc3ccc(OC(F)(F)Cl)cc3)cc(-c3ccn[nH]3)c2N(C(C)C)C1CNC (centres unmarked) [VII-24, N-(4-(chlorodifluoromethoxy)phenyl)-3-ethyl-1-isopropyl-2-((methylamino)methyl)-7-(1H-pyrazol-5-yl)indoline-5-carboxamide] |
| 313 | 1010 | CC(C)N1C(=O)C(C)(C)c2cc(C(=O)Nc3ccc(OC(F)(F)Cl)cc3)cc(-c3ccn[nH]3)c21 [VIII-3, N-(4-(chlorodifluoromethoxy)phenyl)-1-isopropyl-3,3-dimethyl-2-oxo-7-(1H-pyrazol-5-yl)indoline-5-carboxamide] |
| 133 | 1090 | CC1c2cc(C(=O)Nc3ccc(OC(F)(F)Cl)cc3)cc(-c3ccn[nH]3)c2N(C(C)C)C1CO (centres unmarked) [VII-19, N-(4-(chlorodifluoromethoxy)phenyl)-2-(hydroxymethyl)-1-isopropyl-3-methyl-7-(1H-pyrazol-5-yl)indoline-5-carboxamide] |
| 1160 | 3840 | CC(C)C(=O)N1CCc2cc(C(=O)Nc3ccc(OC(F)(F)Cl)cc3)cc(-c3ccn[nH]3)c21 [VII-10, N-(4-(chlorodifluoromethoxy)phenyl)-1-isobutyryl-7-(1H-pyrazol-5-yl) indoline-5-carboxamide] |
| 57 | 344 | CC(C)n1cc(CO)c2cc(C(=O)Nc3ccc(OC(F)(F)Cl)cc3)cc(-c3ccn[nH]3)c21 [XII-8, N-(4-(chlorodifluoromethoxy)phenyl)-3-(hydroxymethyl)-1-isopropyl-7-(1H-pyrazol-5-yl)-1H-indole-5-carboxamide] |
| 235 | 1050 | CC(C)N1CCCc2cc(C(=O)Nc3ccc(OC(F)(F)Cl)cc3)cc(-c3ccn[nH]3)c21 [IX-1, N-(4-(chlorodifluoromethoxy)phenyl)-1-isopropyl-8-(1H-pyrazol-5-yl)-1,2,3,4-tetrahydroquinoline-6-carboxamide] |
| 85 | 366 | CC(C)N1CC(CN(C)C)c2cc(C(=O)Nc3ccc(OC(F)(F)Cl)cc3)cc(-c3ccn[nH]3)c21 (centres unmarked) [VII-27, N-(4-(chlorodifluoromethoxy)phenyl)-3-((dimethylamino)methyl)-1-isopropyl-7-(1H-pyrazol-5-yl)indoline-5-carboxamide] |
| 165 | 2180 | CCC1c2cc(C(=O)Nc3ccc(OC(F)(F)Cl)cc3)cc(-c3ccn[nH]3)c2N(C(C)C)C1CO (centres unmarked) [VII-20, N-(4-(chlorodifluoromethoxy)phenyl)-3-ethyl-2-(hydroxymethyl)-1-isopropyl-7-(1H-pyrazol-5-yl)indoline-5-carboxamide] |
| 55 | 354 | CN1C(=O)C(C)(C)c2c(-c3ccn[nH]3)cc(C(=O)Nc3ccc(OC(F)(F)Cl)cc3)cc21 [V-2, N-(4-(chlorodifluoromethoxy)phenyl)-1,3,3-trimethyl-2-oxo-4-(1H-pyrazol-5-yl)indoline-6-carboxamide] |
| 20 | 223 | CC1CN(C(C)C)c2c(-c3ccn[nH]3)cc(C(=O)Nc3ccc(OC(F)(F)Cl)cc3)cc21 (centres unmarked) [VII-38, N-(4-(chlorodifluoromethoxy)phenyl)-1-isopropyl-3-methyl-7-(1H-pyrazol-5-yl)indoline-5-carboxamide] |
